Reference: patent publication US20200022964A1, “COMPOSITIONS AND METHODS FOR TREATMENT OF INFLAMMATORY AUTOIMMUNE DISEASES” (New York University, priority 2018, published 2020)

What was measured:
cPLA2 = molecular target: T1, cPLA2 (Homo sapiens, UniProt P47712); assay: cPLA2 activity assay in cPLA2-transfected RAW264.7 cells; type: cell-based; details: TNF-α 10 ng/ml; TFD 0.1 or 1 μM, FFD 1 or 10 μM overnight
T1 construct: expressed in transfected cells; host or cells: RAW264.7
Procedure: cPLA2 activity assay. RAW264.7 cells were transfected with an expression plasmid encoding cPLA2. 24 hours later, the transfected cells were treated with TNF-α (10 ng/ml) and ATK (1 μM), or TFD (0.1 μM or 1 μM), or FFD (1 μM or 10 μM) overnight. Then the cells were collected and lysed. Cell lysate was used for measurement of cPLA2 activity using a commercial ELISA kit (765021, Cayman Chemical). Briefly, protein concentration of the cell lysate was measured by bicinchoninic acid assay and equal amounts of protein from each lysate sample were incubated with cPLA2 substrate (Arachidonoyl Thio-PC) at room temperature. One hour later, DTNB/EGTA was added to stop the enzyme catalysis, and then the absorbance was read at 414 nm using a plate reader (SpectraMax i3x, 5025027A, Molecular Devices).

TNF-α and TNFR1 = TNF-α and TNFR1 (Homo sapiens, UniProt P19438); assay: Solid phase binding of TNF-α to TNFR1
Procedure: Solid phase binding. […] Briefly, a 96-well ELISA plate was coated with 100 μL of 0.5 ng/μL TNFR1 at 4° C. overnight. The plate was washed with PBST 5 times, and 300 μL blocking buffer was added to each well followed by incubation at room temperature for 1 hour. After discarding the blocking buffer, 50 μL buffer containing drugs at concentrations ranging from 0.1 nM to 10^5 nM were added to the plate for 1 hour at room temperature. Three wells incubated with bovine serum albumin (BSA) served as negative controls and three wells containing TNF-α were set as positive controls. Without washing, 50 μL buffer containing 10 ng biotin-labeled TNF-α was added to each well and incubated at room temperature for 2 hours. The plate was washed and 100 μL buffer containing streptavidin-HPR was added and incubated at room temperature for 30 minutes. After a final wash, 100 μL TMB buffer was added to each well and the reaction was stopped when the positive control group turned blue. The plate was read by automatic plate reader at 450 nm.

TNF-tg mice = assay: hTNF-tg mouse model of inflammatory arthritis; details: for serum levels of IL-1β and IL-6: compared with the control group; for clinical scores of arthritis: oral daily from 8 weeks of age, 13 weeks, FFD 10 mg/kg, TFD 50 mg/kg; for therapeutic effects (swelling score): treatment started at average score of approximately eight points, FFD 0.4, 2, 10 mg/kg, TFD 2, 10, 50 mg/kg oral, 8 weeks; for swelling score once the treatment resumed: treatment stopped at 17-week and resumed at 19-week time point
Procedure: Six mice in each group. Swelling scores were assessed weekly in accordance with the scoring system offered by the company. The swelling scores were taken as the sum of the scores from digits, paws, wrists and ankles with the highest possible score for each mouse at 24. The score system is: 20 digits (0=normal, 0.2=one or more swollen joints), 4 paws (0=normal, 1=noticeable swollen, 2=severe swollen), 2 wrists (0=normal, 1=noticeable swollen, 2=severe swollen), and 2 ankles (0=normal, 2=noticeable swollen, 4=severe swollen). At the end of treatment and observation, mice were sacrificed for collection of sera, spleens and ankles.

p38 or ERK1/2 = assay: Western blot of TNF activated phosphorylation of p38 and ERK1/2 in BMDMs; type: cell-based, mice; details: TNF-α 10 ng/mL; FFD 10 μM
Procedure: (§1) Primary bone marrow derived macrophages (BMDMs) extraction. BMDMs were isolated from C57BL/6 and TNF-tg mice. After mice were sacrificed by cervical dislocation, the tibia and femur were isolated and both ends of the bones were cut to open the medullary cavity. Bone marrow cells were collected by centrifuge at 13000 g for 90 seconds and seeded in 6-well plates. Prior to their use in experiments, M-CSF (10 ng/ml, 576406, Biolegend) was added for 6 days to the BMDM culture medium.
Western blot. After protein samples were prepared, samples were separated by SDS-PAGE and transferred to a nitrocellulose (NC) membrane (162-0115, BIO-RAD) using a wet transfer system. Membrane was blocked in 5% (w/v) non-fat milk in TBST for half an hour at room temperature, followed by incubation with appropriate primary antibody overnight at 4° C. After washing, appropriate secondary antibody was added for 1 hour at room temperature. The bands on the membrane were developed by chemiluminescent (ECL) substrate and visualized by GelDoc system.

M1 and M2 macrophages = assay: Macrophage polarization in vitro (BMDMs) and in vivo (spleen of TNF-α Tg mice); type: cell-based; details: in vitro BMDMs and spleen of treated TNF-α Tg mice
Procedure: Macrophage polarization. […] INFγ (25 ng/mL) and LPS (250 ng/mL) were added to BMDMs to induce M1 polarization while IL-4(20 ng/mL) was used to induce M2 polarization, with or without adding FFD (1 or 10 μM) or TFD (0.1 or 1μM), and cells were cultured for 24 hours. mRNA were extracted by RNA Mini kit (74106, QIAGEN).
Frozen splenic tissue specimens from TNFα Tg mice treated with or without TFD or FFD were stained and analyzed dual immunofluorescence. All sections were permeabilized with 0.1% NP40 in PBS, and then blocked in 5% donkey serum for 30 min at RT, followed by incubated with anti-IFNg (Th1), anti-IL-4 (Th2), anti-IL17 (Th17) and anti-foxp3 (Treg) diluted in 5% donkey serum at 4° C. overnight. On the second day, after washed 3 times in PBS, the sections were incubated with Cy2-conjugated donkey anti-rat IgG for 30 min at RT. After wash, the sections were furthered stained with FITC conjugated anti-CD4 for I hour at RT. To determine the macrophage polarization, sections were double stained with anti-CD68 and iNOS (M1) or CD206 (M2). DAPI were used to stain the nuclei. The fluorescence intensity of cells was quantified by Image J software.

TNF-α = assay: qRT-PCR of TNF-α-induced IL-1β, IL-6 and Nos-2 mRNA in BMDMs; type: cell-based, mice; details: TNF-α 10 ng/mL; FFD 1, 10 μM; TFD 0.1, 1 μM; 24 hours
Procedure: as §1
qRT-PCR. Total RNA was extracted by RNeasy plus mini kit (74106, QIAGEN) and cDNA was synthesized using SuperScript® Reverse Transcriptase (M314C, promega Corporation). SYBR® Green PCR Master Mix (4309155, Applied Biosystems) was used to perform quantitative real-time PCR (qRT-PCR) and the reaction was performed on a StepOnePlus™ real-time PCR Systems (Applied Biosystems). The mRNA expression level of target genes was calculated by ΔΔCT and fold changes of mRNA levels were normalized to GAPDH.

T1 sequence (P47712 whole entry): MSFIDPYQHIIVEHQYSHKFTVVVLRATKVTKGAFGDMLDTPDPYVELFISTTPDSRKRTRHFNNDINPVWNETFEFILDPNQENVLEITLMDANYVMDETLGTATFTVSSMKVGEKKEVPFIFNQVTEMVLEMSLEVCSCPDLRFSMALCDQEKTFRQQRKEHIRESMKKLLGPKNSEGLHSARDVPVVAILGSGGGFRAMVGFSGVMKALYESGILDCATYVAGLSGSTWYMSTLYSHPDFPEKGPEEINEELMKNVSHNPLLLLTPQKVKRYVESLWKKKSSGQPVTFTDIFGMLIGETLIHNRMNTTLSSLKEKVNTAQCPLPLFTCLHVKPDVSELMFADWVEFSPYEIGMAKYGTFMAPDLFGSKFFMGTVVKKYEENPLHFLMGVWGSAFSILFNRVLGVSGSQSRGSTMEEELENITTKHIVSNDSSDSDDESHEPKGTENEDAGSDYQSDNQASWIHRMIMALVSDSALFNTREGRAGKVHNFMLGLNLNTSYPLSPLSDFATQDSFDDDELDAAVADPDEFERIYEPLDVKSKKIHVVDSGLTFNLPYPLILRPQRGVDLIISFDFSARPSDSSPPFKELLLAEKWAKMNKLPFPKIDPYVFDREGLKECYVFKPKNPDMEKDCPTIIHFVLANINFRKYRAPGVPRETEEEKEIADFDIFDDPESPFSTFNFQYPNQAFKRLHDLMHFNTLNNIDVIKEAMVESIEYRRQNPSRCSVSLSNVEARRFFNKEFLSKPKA
Sequence of TNF-α and TNFR1 (P19438 30-211 limits assumed, species assumed): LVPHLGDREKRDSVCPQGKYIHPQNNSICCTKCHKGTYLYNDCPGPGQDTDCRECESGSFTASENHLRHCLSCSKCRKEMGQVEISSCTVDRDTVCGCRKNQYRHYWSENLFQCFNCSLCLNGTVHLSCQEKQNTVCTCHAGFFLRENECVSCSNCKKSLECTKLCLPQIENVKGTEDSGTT

TNF-α induced cPLA2 activity (cPLA2)	binding of TNF-α to TNFR1 in vitro (TNF-α and TNFR1)	Structure (SMILES)	clinical scores of arthritis, comparison with MTX (TNF-tg mice; prevention, FFD 10 mg/kg vs MTX 2 mg/kg oral daily)	serum levels of IL-1β and IL-6 (TNF-tg mice; prevention)	clinical scores of arthritis (TNF-tg mice; prevention)	therapeutic effects (swelling score) (TNF-tg mice)	swelling score once the treatment resumed (TNF-tg mice)	phosphorylation of p38 or ERK1/2 (p38 or ERK1/2)	anti-inflammatory M2 macrophages (M1 and M2 macrophages)	inflammatory M1 macrophages (M1 and M2 macrophages)	TNF-α-induced mRNA expressions of IL-1β, IL-6 and Nos-2 (TNF-α)
completely abolished	did not affect	CC(C)(C(=O)O)c1ccc(C(O)CCCN2CCC(C(O)(c3ccccc3)c3ccccc3)CC2)cc1 (centres unmarked) [fexofenadine]	more effective than MTX	significantly reduced	significant reduction	effective therapeutic effects in a dose-dependent manner	immediate reduction	did not affect	markedly increased	significantly inhibited	dose-dependently inhibited
completely abolished	did not affect	CC(C)(C)c1ccc(C(O)CCCN2CCC(C(O)(c3ccccc3)c3ccccc3)CC2)cc1 (centres unmarked) [terfenadine]	–	significantly reduced	significant reduction	effective therapeutic effects in a dose-dependent manner	immediate reduction	–	markedly increased	significantly inhibited	dose-dependently inhibited
